Laboratory results: patent publication US20080009418A1, “Selective Inhibitors” (Alchemia LTD., priority 2004, published 2008)

Tests used:
[1] = molecular target: T1, Human δ-opioid (DOP) (Homo sapiens, UniProt P41143); assay: Radioligand binding, human δ-opioid (DOP) membranes, FlashPlate, [3H]-Bremazocine; conditions: compound at 10 μM, [3H]-Bremazocine
T1 construct: purchased Perkin Elmer Biosignal
Outline: (§1)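 Cloned human receptor membranes were coated onto FlashPlate wells and incubated with radioligand and compound (added from a 0.5 mM DMSO daughter plate) for 1 hour at room temperature in the dark. Scintillation counting gave percent inhibition, with DMSO defining total and reference ligand defining non-specific binding.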

[2] = molecular target: T2, Human Melanocortin (MC3) (Homo sapiens, UniProt P41968); assay: Radioligand binding, human melanocortin MC3 membranes, FlashPlate, [125I]-NDP-αMSH; conditions: compound at 10 μM, [125I]-NDP-αMSH
T2 construct: purchased Perkin Elmer Biosignal
T2 sequence (P41968 whole entry): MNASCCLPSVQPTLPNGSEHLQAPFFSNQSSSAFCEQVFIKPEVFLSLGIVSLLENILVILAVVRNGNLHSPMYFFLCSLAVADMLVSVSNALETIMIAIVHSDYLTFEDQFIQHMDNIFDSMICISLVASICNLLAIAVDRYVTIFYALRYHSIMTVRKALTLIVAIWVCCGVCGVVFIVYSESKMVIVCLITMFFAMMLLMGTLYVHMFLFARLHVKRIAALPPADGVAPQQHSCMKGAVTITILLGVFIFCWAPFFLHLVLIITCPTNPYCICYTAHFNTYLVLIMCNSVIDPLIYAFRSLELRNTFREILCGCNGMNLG
Outline: as §1

[3] = molecular target: T3, Human neuropeptide Y (NPY-Y1) (Homo sapiens, UniProt P25929); assay: Radioligand binding, human neuropeptide Y NPY-Y1 membranes, FlashPlate, [125I]-PYY; conditions: compound at 10 μM, [125I]-PYY
T3 construct: purchased Perkin Elmer Biosignal
T3 sequence (P25929 1-384): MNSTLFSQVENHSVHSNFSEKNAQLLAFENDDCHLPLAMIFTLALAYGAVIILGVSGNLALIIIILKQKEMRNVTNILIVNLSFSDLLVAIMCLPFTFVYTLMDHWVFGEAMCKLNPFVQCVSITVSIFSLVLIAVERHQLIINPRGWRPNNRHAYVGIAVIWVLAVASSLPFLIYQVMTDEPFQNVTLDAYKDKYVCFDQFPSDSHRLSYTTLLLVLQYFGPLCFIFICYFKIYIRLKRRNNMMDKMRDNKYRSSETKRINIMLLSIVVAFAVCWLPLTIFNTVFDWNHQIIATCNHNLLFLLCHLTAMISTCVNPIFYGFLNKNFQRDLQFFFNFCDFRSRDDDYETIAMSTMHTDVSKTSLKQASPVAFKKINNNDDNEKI
Outline: as §1

[4] = molecular target: T4, Human κ-Opioid (KOP) (Homo sapiens, UniProt P41145); assay: Radioligand binding, human κ-opioid (KOP) membranes, filtration, [3H]-Diprenorphine; conditions: compound at 10 μM, [3H]-Diprenorphine
T4 construct: purchased Perkin Elmer Biosignal
T4 sequence (P41145 whole entry): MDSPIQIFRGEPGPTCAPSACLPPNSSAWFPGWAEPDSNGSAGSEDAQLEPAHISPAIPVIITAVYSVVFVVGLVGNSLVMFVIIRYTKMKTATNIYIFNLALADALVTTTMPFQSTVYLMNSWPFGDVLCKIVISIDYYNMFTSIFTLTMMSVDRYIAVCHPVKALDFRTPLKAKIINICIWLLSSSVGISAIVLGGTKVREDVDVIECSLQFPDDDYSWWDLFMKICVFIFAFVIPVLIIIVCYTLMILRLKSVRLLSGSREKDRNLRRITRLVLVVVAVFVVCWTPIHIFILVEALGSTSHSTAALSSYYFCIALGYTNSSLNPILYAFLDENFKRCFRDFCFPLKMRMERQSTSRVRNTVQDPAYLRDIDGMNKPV
Outline: (§2)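 Membranes from cloned human receptors were incubated with compound and radioligand for 1 hour at room temperature. Bound ligand was collected on 0.3% PEI-soaked filters, washed with cold 50 mM Tris-HCl pH 7.4, and counted by scintillation. Percent inhibition was computed against DMSO totals and reference-ligand nonspecific wells.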

[5] = molecular target: T5, Human melanin-concentrating hormone (MCH1) (Homo sapiens, UniProt Q99705); assay: Radioligand binding, human melanin-concentrating hormone MCH1 membranes, FlashPlate, [125I]-S36057; conditions: compound at 10 μM
T5 construct: purchased Perkin Elmer Biosignal
T5 sequence (Q99705 whole entry): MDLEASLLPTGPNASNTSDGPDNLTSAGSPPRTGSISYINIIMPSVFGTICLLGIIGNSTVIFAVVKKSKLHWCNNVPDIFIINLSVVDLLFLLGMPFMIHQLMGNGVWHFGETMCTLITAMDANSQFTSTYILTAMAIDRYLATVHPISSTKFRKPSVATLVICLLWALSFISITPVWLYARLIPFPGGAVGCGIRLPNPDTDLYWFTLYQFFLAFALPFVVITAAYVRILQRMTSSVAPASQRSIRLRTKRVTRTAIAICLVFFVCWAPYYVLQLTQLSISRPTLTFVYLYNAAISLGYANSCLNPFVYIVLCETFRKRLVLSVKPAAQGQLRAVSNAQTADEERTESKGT
Outline: as §1

[6] = molecular target: T6, Human opioid (ORL1) (Homo sapiens, UniProt P41146); assay: Radioligand binding, human opioid ORL1 membranes, FlashPlate, [125I]-Nociceptin; conditions: compound at 10 μM, [125I]-Nociceptin
T6 construct: purchased Perkin Elmer Biosignal
T6 sequence (P41146 whole entry): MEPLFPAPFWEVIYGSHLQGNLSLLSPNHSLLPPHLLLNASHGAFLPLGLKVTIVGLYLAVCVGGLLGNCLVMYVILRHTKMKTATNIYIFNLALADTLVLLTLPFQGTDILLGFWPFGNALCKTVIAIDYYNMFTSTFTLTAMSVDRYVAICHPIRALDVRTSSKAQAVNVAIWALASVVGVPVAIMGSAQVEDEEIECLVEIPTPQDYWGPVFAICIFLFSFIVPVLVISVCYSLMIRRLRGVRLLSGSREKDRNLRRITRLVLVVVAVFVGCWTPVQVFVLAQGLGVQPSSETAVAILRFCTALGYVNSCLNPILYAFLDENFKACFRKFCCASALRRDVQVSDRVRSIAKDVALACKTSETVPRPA
Outline: as §1

[7] = molecular target: T7, Human Melanocortin (MC4) (Homo sapiens, UniProt P32245); assay: Radioligand binding, human melanocortin MC4 membranes, FlashPlate, [125I]-NDP-αMSH; conditions: compound at 10 μM, [125I]-NDP-αMSH
T7 construct: purchased Perkin Elmer Biosignal
T7 sequence (P32245 whole entry): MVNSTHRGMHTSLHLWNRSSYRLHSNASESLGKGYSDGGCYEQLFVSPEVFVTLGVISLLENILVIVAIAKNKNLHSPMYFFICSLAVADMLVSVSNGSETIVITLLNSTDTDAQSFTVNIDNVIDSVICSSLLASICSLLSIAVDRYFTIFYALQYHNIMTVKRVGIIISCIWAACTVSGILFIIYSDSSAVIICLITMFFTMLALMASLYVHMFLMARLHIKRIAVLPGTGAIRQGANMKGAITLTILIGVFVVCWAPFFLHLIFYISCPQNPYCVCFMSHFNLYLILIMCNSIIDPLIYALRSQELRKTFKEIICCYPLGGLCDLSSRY
Outline: as §1

[8] = molecular target: T8, Human neurokinin (NK1) (Homo sapiens, UniProt P25103); assay: Radioligand binding, human neurokinin NK1 membranes, filtration, [125I]-Substance P; conditions: compound at 10 μM, [125I]-Substance P
T8 construct: purchased Perkin Elmer Biosignal
T8 sequence (P25103 whole entry): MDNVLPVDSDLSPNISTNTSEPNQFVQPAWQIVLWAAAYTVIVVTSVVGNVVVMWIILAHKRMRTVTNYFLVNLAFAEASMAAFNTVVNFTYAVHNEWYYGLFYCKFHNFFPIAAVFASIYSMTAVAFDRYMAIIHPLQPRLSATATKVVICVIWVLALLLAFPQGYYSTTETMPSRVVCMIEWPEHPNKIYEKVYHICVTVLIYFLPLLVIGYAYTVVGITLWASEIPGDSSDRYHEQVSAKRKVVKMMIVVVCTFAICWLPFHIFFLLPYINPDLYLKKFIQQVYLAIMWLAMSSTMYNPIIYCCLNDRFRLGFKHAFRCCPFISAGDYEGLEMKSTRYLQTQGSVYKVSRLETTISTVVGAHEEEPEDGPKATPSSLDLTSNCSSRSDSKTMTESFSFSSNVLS
Outline: as §2

[9] = molecular target: T9, Human melanocortin (MC5) (Homo sapiens, UniProt P33032); assay: Radioligand binding, human melanocortin MC5 membranes, FlashPlate, [125I]-NDP-αMSH; conditions: compound at 10 μM, [125I]-NDP-αMSH
T9 construct: purchased Perkin Elmer Biosignal
T9 sequence (P33032 whole entry): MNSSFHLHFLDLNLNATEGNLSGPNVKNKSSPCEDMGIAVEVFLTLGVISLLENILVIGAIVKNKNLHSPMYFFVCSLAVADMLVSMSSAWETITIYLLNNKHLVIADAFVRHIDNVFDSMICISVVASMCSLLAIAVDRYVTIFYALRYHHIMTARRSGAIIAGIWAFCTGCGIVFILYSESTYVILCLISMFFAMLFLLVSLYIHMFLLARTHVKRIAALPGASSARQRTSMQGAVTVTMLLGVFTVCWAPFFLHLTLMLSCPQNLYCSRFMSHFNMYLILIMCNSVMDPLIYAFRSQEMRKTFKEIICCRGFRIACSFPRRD
Outline: as §1

[10] = molecular target: T10, Human μ-opioid (MOP) (Homo sapiens, UniProt P35372); assay: Radioligand binding, human μ-opioid (MOP) membranes, FlashPlate, [3H]-Naloxone; conditions: compound at 10 μM, [3H]-Naloxone
T10 construct: purchased Perkin Elmer Biosignal
T10 sequence (P35372 whole entry): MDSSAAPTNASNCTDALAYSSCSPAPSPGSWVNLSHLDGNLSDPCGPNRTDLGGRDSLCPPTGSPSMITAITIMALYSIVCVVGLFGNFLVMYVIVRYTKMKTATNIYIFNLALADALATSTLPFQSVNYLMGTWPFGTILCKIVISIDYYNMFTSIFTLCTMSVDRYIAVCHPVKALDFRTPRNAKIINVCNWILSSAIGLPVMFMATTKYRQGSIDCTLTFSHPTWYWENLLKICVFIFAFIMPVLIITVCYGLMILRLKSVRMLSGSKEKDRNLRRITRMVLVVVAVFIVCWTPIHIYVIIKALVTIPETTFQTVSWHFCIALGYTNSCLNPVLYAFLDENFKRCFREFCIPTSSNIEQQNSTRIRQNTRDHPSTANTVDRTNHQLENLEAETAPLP
Outline: as §1

[11] = molecular target: T11, Mouse urotensin (mUR2) (Mus musculus, UniProt Q8VIH9); assay: Radioligand binding, mouse urotensin mUR2 membranes, FlashPlate, [125I]-Urotensin II; conditions: compound at 10 μM, [125I]-Urotensin II
T11 construct: purchased Perkin Elmer Biosignal
T11 sequence (Q8VIH9 1-385): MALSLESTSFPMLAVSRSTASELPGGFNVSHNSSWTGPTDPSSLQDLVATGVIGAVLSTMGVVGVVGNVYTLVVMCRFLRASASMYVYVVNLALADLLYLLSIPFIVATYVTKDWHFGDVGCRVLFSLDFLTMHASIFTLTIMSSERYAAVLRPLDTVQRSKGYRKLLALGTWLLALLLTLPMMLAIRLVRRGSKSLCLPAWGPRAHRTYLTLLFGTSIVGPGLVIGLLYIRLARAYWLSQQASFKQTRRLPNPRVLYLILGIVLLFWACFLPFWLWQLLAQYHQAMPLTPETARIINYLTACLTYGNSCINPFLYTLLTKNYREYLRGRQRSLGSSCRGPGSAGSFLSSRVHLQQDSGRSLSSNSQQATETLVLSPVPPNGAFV
Outline: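 Cloned mouse urotensin (mUR2) receptor membranes from Perkin Elmer Biosignal were immobilized in FlashPlate microplates using a proprietary coating. Each well got 19.5 μl buffer, then 0.5 μl of DMSO, reference ligand, or compound. Adding 5 μl of [125I]-Urotensin II, diluted to 5× final concentration in binding buffer, started binding. Plates were sealed with TopSeal-A and incubated 1 hour at room temperature in the dark. Wells were counted for 30 seconds each on a TopCount after a 60-second delay, and percentage inhibition was calculated.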

T1 sequence (P41143 whole entry): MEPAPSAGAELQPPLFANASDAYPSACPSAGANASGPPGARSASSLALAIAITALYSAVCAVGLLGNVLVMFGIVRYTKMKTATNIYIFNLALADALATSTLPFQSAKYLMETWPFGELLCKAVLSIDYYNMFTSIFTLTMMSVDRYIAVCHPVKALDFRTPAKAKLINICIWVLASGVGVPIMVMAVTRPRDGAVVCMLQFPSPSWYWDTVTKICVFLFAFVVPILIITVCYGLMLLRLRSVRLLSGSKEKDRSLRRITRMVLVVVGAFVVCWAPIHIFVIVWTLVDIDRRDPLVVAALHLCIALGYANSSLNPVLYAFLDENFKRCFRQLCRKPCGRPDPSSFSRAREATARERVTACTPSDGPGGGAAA

SMILES	A1: inhibition of radioligand binding ([1]; FlashPlate)	A3: inhibition of radioligand binding ([2]; FlashPlate)	A9: inhibition of radioligand binding ([3]; FlashPlate)	A2: inhibition of radioligand binding ([4]; filtration)	A6: inhibition of radioligand binding ([5]; [125I]-S36057, FlashPlate)	A10: inhibition of radioligand binding ([6]; FlashPlate)	A4: inhibition of radioligand binding ([7]; FlashPlate)	A8: inhibition of radioligand binding ([8]; filtration)	A5: inhibition of radioligand binding ([9]; FlashPlate)	A7: inhibition of radioligand binding ([10]; FlashPlate)	A11: inhibition of radioligand binding ([11]; FlashPlate)	further results
NCCCC(=O)NC1C(OCc2ccc3ccccc3c2)OC(COCc2ccc3ccccc3c2)C(O)C1OCc1ccc(Cl)cc1 (single isomer, unassigned) [compound 455]												A1: inhibition of radioligand binding ([1]; human DOP membranes): − (“−” indicates less than 50% inhibition at 10 μM); A3: inhibition of radioligand binding ([2]; human MC3 membranes): + (“+” indicates greater than 50% inhibition at 10 μM); A9: inhibition of radioligand binding ([3]; human NPY-Y1 membranes): − (“−” indicates less than 50% inhibition at 10 μM); A2: inhibition of radioligand binding ([4]; human KOP membranes, 10 µM): + (“+” indicates greater than 50% inhibition at 10 μM); A6: inhibition of radioligand binding ([5]; [125I]-S36057, human MCH1 membranes): + (“+” indicates greater than 50% inhibition at 10 μM); A10: inhibition of radioligand binding ([6]; human ORL1 membranes, 10 µM): − (“−” indicates less than 50% inhibition at 10 μM); A4: inhibition of radioligand binding ([7]; human MC4 membranes): + (“+” indicates greater than 50% inhibition at 10 μM); A8: inhibition of radioligand binding ([8]; human NK1 membranes): + (“+” indicates greater than 50% inhibition at 10 μM); A5: inhibition of radioligand binding ([9]; human MC5 membranes): + (“+” indicates greater than 50% inhibition at 10 μM); A7: inhibition of radioligand binding ([10]; human MOP membranes, 10 µM): + (“+” indicates greater than 50% inhibition at 10 μM); A11: inhibition of radioligand binding ([11]; mouse mUR2 membranes): − (“−” indicates less than 50% inhibition at 10 μM)
COCC1OC(OCc2ccc3ccccc3c2)C(NC(=O)CCN)C(OCc2ccccc2)C1O (centres unmarked) [compound 231]	− (“−” indicates less than 50% inhibition at 10 μM)	− (“−” indicates less than 50% inhibition at 10 μM)	− (“−” indicates less than 50% inhibition at 10 μM)	− (“−” indicates less than 50% inhibition at 10 μM)	− (“−” indicates less than 50% inhibition at 10 μM)	− (“−” indicates less than 50% inhibition at 10 μM)	− (“−” indicates less than 50% inhibition at 10 μM)	+ (“+” indicates greater than 50% inhibition at 10 μM)	− (“−” indicates less than 50% inhibition at 10 μM)	− (“−” indicates less than 50% inhibition at 10 μM)	− (“−” indicates less than 50% inhibition at 10 μM)	
N=C(N)NCC(=O)NC1C(OCc2ccc(Cl)cc2)OC(COCc2ccccc2)C(O)C1OCc1ccc(Cl)cc1 (single isomer, unassigned) [compound 509]												A1: inhibition of radioligand binding, human δ-opioid (DOP) [1]: − (“−” indicates less than 50% inhibition at 10 μM); A3: inhibition of radioligand binding, human melanocortin (MC3) ([2]; 10 µM): − (“−” indicates less than 50% inhibition at 10 μM); A9: inhibition of radioligand binding, human neuropeptide Y (NPY-Y1) [3]: − (“−” indicates less than 50% inhibition at 10 μM); A2: inhibition of radioligand binding, human κ-opioid (KOP) [4]: − (“−” indicates less than 50% inhibition at 10 μM); A6: inhibition of radioligand binding, human melanin-concentrating hormone (MCH1) ([5]; [125I]-S36057): + (“+” indicates greater than 50% inhibition at 10 μM); A10: inhibition of radioligand binding, human opioid (ORL1) ([6]; 10 µM): − (“−” indicates less than 50% inhibition at 10 μM); A4: inhibition of radioligand binding, human melanocortin (MC4) [7]: + (“+” indicates greater than 50% inhibition at 10 μM); A8: inhibition of radioligand binding, human neurokinin (NK1) [8]: + (“+” indicates greater than 50% inhibition at 10 μM); A5: inhibition of radioligand binding, human melanocortin (MC5) [9]: + (“+” indicates greater than 50% inhibition at 10 μM); A7: inhibition of radioligand binding, human μ-opioid (MOP) ([10]; 10 µM): + (“+” indicates greater than 50% inhibition at 10 μM); A11: inhibition of radioligand binding, mouse urotensin (mUR2) [11]: − (“−” indicates less than 50% inhibition at 10 μM)
CSC1OC(COCc2ccc(-c3ccccc3)cc2)C(O)C(OCc2ccccc2)C1NC(=O)CCN (centres unmarked) [compound 256]	− (“−” indicates less than 50% inhibition at 10 μM)	− (“−” indicates less than 50% inhibition at 10 μM)	− (“−” indicates less than 50% inhibition at 10 μM)	− (“−” indicates less than 50% inhibition at 10 μM)	− (“−” indicates less than 50% inhibition at 10 μM)	− (“−” indicates less than 50% inhibition at 10 μM)	− (“−” indicates less than 50% inhibition at 10 μM)	+ (“+” indicates greater than 50% inhibition at 10 μM)	− (“−” indicates less than 50% inhibition at 10 μM)	− (“−” indicates less than 50% inhibition at 10 μM)	− (“−” indicates less than 50% inhibition at 10 μM)	
